# US7875607B2, “7,8-bicycloakyl-chroman derivatives” (Ampere Life Sciences, Inc., priority 2004, dated 2011)
# Legend:
# [1] = system: LTB4 release from MPRO cell line; test: LTB4-cell assay; format: cell-based; conditions: Mus musculus; differentiated MPRO cells, 1 μM A23187, 1 hour; read-out: EC50, inhibition of LTB4
# Experimental: This procedure was used for measuring the release of the leukotriene LTB4 from a neutrophil cell line using a competitive ELISA technique.
# A mouse promyelocytic cell line (MPRO) was used in this assay. These cells are committed immature neutrophils that can be differentiated into mature neutrophils by treatment with 10 μM all-trans retinoic acid for 72 hours
# Following 72 hours of differentiation, cells were stimulated with 1 μM of a calcium ionophore (A23187) in the presence or absence of test compound or vehicle for 1 hour at 37° C. After this time, supernatant was removed from the cells and the LTB4 levels were determined following manufacturer's instructions, using a Leukotriene B4 EIA kit from Cayman (Cat # 520111)
# The negative controls were media samples from differentiated but unstimulated cells.
# The compounds were screened at 5 concentrations in quadruplicate starting at 10 μM
# [2] = target: T1, porcine leukocyte 12/15-lipoxygenase (Sus scrofa, UniProt P16469); test: 12/15-Lipoxygenase enzyme assay; format: biochemical; conditions: 70 μM arachidonic acid, pH 7.4; read-out: IC50, inhibition of 12/15-Lipoxygenase
# T1 sequence (P16469 1-663): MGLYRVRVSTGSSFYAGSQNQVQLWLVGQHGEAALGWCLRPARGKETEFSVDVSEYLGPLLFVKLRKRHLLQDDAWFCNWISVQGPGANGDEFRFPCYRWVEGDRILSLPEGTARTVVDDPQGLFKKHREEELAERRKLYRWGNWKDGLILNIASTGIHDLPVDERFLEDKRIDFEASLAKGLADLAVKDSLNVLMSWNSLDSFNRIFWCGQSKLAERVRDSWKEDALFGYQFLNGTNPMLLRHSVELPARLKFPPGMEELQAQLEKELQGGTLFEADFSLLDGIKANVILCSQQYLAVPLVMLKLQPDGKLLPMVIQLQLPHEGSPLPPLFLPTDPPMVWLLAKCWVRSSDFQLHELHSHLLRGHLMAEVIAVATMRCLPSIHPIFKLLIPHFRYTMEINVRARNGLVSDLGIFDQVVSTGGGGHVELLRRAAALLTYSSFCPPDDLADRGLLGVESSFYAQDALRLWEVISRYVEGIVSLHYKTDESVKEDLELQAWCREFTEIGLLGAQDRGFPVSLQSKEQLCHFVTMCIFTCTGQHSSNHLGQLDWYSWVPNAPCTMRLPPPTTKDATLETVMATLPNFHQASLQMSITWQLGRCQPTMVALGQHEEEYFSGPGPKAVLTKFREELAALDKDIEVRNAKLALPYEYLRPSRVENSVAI
# Experimental: This procedure was used for measuring the enzymatic activity of porcine leukocyte 12/15-lipoxygenase using a calorimetric method based on the ferric oxidation of xylenol orange.
# (§1) Porcine Leukocyte 12/15-lipoxygenase (Cayman Cat # 60300) was used in this assay. Test compound and/or vehicle was added to 1.3U 12/15-lipoxygenase in 50 mM Tris-HCl buffer, pH 7.4. The reaction was initiated by addition of 70 μM arachidonic acid in Tris-HCl buffer, pH 7.4, and terminated after a 10 minute incubation at room temperature by addition of FOX reagent (25 mM sulphuric acid, 100 μM xylenol orange, 100 μM iron (II) sulphate, methanol:water 9:1). The yellow color of acidified xylenol orange was converted to a blue color by the lipid hydroperoxide-mediated oxidation of Fe^2+ ions and the interaction of the resulting Fe^3+ ions with the dye. The complex was allowed to form during a 1 hour incubation at room temperature with shaking. Absorbance of the Fe^3+ complex was then measured at […] using a spectrophotometer.
# (§2) Negative controls contained enzyme during the incubation step but substrate was not added until after the FOX reagent.
# Compounds are screened at 5 concentrations in triplicate starting at 10 μM
# [3] = target: T2, human recombinant 5-lipoxygenase (Homo sapiens, UniProt P09917); test: 5-Lipoxygenase enzyme assay; format: biochemical; conditions: 70 μM arachidonic acid, pH 7.4
# T2 construct: purchased Cayman 60402
# T2 sequence (P09917 1-674): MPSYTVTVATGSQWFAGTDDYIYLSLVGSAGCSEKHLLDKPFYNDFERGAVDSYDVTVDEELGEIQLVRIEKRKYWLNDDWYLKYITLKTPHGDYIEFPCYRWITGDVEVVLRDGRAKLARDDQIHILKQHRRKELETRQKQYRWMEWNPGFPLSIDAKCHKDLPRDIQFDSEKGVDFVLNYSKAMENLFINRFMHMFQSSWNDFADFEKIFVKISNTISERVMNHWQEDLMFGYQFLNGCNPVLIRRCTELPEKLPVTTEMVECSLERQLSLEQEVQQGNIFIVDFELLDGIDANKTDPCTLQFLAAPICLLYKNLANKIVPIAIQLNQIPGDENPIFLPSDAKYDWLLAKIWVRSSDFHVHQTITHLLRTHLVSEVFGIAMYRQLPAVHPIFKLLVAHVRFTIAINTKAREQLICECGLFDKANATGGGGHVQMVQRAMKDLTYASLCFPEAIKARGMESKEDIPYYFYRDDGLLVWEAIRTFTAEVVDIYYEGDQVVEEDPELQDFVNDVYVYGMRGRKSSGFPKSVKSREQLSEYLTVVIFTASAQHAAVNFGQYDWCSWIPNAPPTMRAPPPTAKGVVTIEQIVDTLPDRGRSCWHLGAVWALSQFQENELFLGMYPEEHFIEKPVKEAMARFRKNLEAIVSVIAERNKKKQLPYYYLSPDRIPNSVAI
# Experimental: This procedure was used for measuring the enzymatic activity of human recombinant 5-lipoxygenase using a […] method based on the ferric oxidation of xylenol orange.
# as §1, with “Human recombinant 5-lipoxygenase” for “Porcine Leukocyte 12/15-lipoxygenase”, “60402)” for “60300)”, “The test” for “Test”, “0.5U 5-lipoxygenase” for “1.3U 12/15-lipoxygenase”
# as §2
# Compounds were screened at 5 concentrations in triplicate starting at 10 μM
# [4] = system: LTB4 production in heparinized whole blood; test: Inhibition of LTB4 production in blood; format: cell-based, rat or mouse; conditions: 20 μM A23187, read-out: EC50, protection against LTB4
# Experimental: The blood was collected in heparinized tubes or syringes to prevent clotting. Heparin was at 20 USP U/ml. About 3-5 ml of blood was collected per rat and about 0.5-0.75 ml per mouse. This assay required 200 μl/data point, therefore a 96 well plate requires 20 ml.
# The Calcium ionophore A23187 was prepared as a 10 mM stock solution in DMSO and the test agent is prepared in DMSO so that <1 μl DMSO will be added to the well
# 200 μl blood per well were added in a round bottom 96 well clear plastic 96 well plate followed by the test agent. After 10 minutes incubation at 37° C., 5 μl of Calcium ionophore A23187 for a final concentration of 20 μM were added and mixed, and further incubated for 30 min. After 1000×g centrifugation to pellet blood cells, 20 μl plasma was carefully removed.
# 20 μl plasma were added to 80 μl methanol to precipitate protein and mixed. This was further incubated 10 min. at room temperature and centrifuged at 1000×g to pellet protein.
# Following manufacturer's instructions, the commercially available EIA kit was used to subsequently measure the LTB4 production in the samples. The LTB4 levels produced in the vehicle control sample were then compared to those in which the test compound had been added. From this a percent inhibition of LTB4 production by each concentration of test compound was calculated and the IC50 for inhibition of LTB4 production for each test compound was determined.
# [5] = system: dopaminergic neuronal cell line; test: High glutamate-induced oxidative stress assay (HGOS); format: cell-based; conditions: Mus musculus; 30 mM glutamate, 16 hrs; read-out: EC50, protection against HGOS cell injury and cell death
# Excerpt: Protection against redox stress can be further evaluated in cell culture using high glutamate induced oxidative stress (HGOS) in mouse dopaminergic cell lines. The cytotoxic effect of glutamate is not due to excitotoxicity, as this cell line is devoid of inotropic glutamate receptors. Rather, the glutamate-induced toxicity of dopaminergic cells is associated with an inhibition of cystine transport which subsequently leads to depletion of intracellular glutathione (GSH) levels (Murphy T. H., et al. Neuron 2, 1547-1558, 1989), activation of neuronal 12-lipoxygenase (Li, Y. et al., Neuron 19, 453-463, 1997), increased ROS production (Tan S. et al., J. Cell Biol. 141, 1423-1432, 1998) and elevated intracellular Ca^2+ (Li, Y. et al., see supra). Some molecules were measured for their ability to protect cells against glutamate-induced stress and the assay is detailed in Examples.
# This procedure was used to induce high glutamate-induced oxidative stress (HGOS) in a dopaminergic neuronal cell line. Using this assay the potency and efficacy of test articles against HGOS neuronal cell injury and cell death was established in a high throughput manner.
# The cells were seeded into 96-well plates at a density of 2000 per well and left to grow for 72 hours in a 33° C. incubator with 5% CO2 in air atmosphere. The passage number of the cells for each assay experiment were no later than p11 in order to minimize experimental variation.
# All compounds were dissolved in DMEM-No Glu containing 1 mM glucose, 30 mM glutamate and 1×Pen/Strep. DMEM-No Glu with 1 mM glucose and 1×P/S was used as the negative control, DMEM-No Glucose with 1 mM glucose, […] was used as a positive control and 100 μM Glutathione was added to the positive control as a standard. All of the procedures for this involving the making and dilution of compounds were performed using aseptic conditions and with minimal light.
# The plates were removed from the incubator and examined under the microscope for morphological appearance and density. Using an aseptic technique and an 8-channel aspirator the media was carefully removed from the cells and replaced with 200 μl of 1×HBSS. This was done as quickly as possible to prevent the cells drying out. The plates were then placed in the humidified 37° C. incubators of the Biomek 2000 Side Loader. Four plates were washed at a time so as to minimize the time that the cells were sitting in 1×HBSS prior to addition of the compound test solution.
# The Beckman Biomek workstations were used to load the compounds and controls from the mother plates onto the cell plates that were prewashed with HBSS under sterile conditions. The plates were incubated in the upper HTS incubator at 37° C. in 5% CO2 for exactly 16 hrs. The following day, using the Beckman Biomek workstations, the plates were removed from the incubator. Using Cell Tracker Addition, the compounds were removed from the plates, washed once with […] of pre-warmed 1×HBSS and then 100 μL of 5 μM Cell Tracker Green was added to each well. The plates were incubated at 37° C. for 30 min to allow the dye to enter the cell and be cleaved by the esterases. After washing the cells twice with prewarmed 1×HBSS, the plates were read with the 485 excitation; 538 emission filter pair on a Fluoroskan.
SMILES,EC50 [1] [µM],IC50 [2] [µM],IC50 [3] [µM],EC50 [4] [µM],EC50 [5] [µM]
"Cc1c(O)c2c(c3c1CCC(C)(C)O3)C1CCC2CC1 [2,2,5-Trimethyl-3,4,7,8,9,10-hexahydro-7,10-ethano-2H-benzo[h]chromen-6-ol]",≤ 5,≤ 10,,,
"CC1(C)CCc2cc(O)c3c(c2O1)C1CCC3C1 (stereo not drawn) [2,2-Dimethyl-3,4,7,8,9,10-hexahydro-7,10-methano-2H-benzo[h]chromen-6-ol]",≤ 5,≤ 10,≤ 5,≤ 10,
"CC1(CCCSc2ccncc2)CCc2cc(O)c3c(c2O1)C1CCC3C1 (stereo not drawn) [2-Methyl-2-[3-(pyridin-4-ylsulfanyl)-propyl]-3,4,7,8,9,10-hexahydro-7,10-methano-2H-benzo[h]chromen-6-ol]",≤ 5,≤ 10,≤ 5,,
"CC1(c2nccs2)CCc2cc(O)c3c(c2O1)C1CCC3C1 (stereo not drawn) [2-Methyl-2-thiazol-2-yl-3,4,7,8,9,10-hexahydro-7,10-methano-2H-benzo[h]chromen-6-ol]",≤ 5,≤ 10,,,
"CC1(c2cccs2)CCc2cc(O)c3c(c2O1)C1CCC3C1 (stereo not drawn) [2-methyl-2-thiophen-2-yl-3,4,7,8,9,10-hexahydro-7,10-methano-2H-benzo[h]chromen-6-ol]",≤ 5,≤ 10,,≤ 10,≤ 1
